pIC50: −log10 of the molar value.
System: Ba/F3-TPM3-NTRK1-G667C cells
Test: Growth inhibition of Ba/F3-TPM3-NTRK1-G667C cells (Cell Titer-Glo)
Type: cell-based
Conditions: 72 hours, CTG; read-out: inhibitory activity IC50 Ba/F3-TPM3-NTRK1-G667C
Description: Then the solutions were subjected to a gradient dilution with DMSO: a clean, sterile V-bottom 96-well microplate was placed in the biological safety cabinet. First, 4 μL of DMSO was added to well B2 and 10 μL of DMSO was added to wells B3-B11 respectively; Next, 6 μL of the 10 mM solution was added to well B2. The microplate was pipetted up and down 10 times for mixing. […] Mixing was performed by pipetting up and down 10 times. The solution was diluted in order until well B10. only DMSO was added to well B11 (no compound).
6× Compound Solution Preparation (6-fold dilution, × represents dilution factor): (Initial final concentration: 10 μM), a clean, sterile V-bottom 96-well microplate was placed in the biological safety cabinet. 99 μL of cell culture medium was added to each well from B2 to G11. By using a 12-channel pipettor, 1 μL of the compound solution prepared in the previous step was added into the corresponding wells. The solutions were pipetted up and down 10 times to mix the solutions. The highest concentration of compound in this step was 60 μM.
Treatment of Cells: the above-prepared cell culture plate was taken out of the incubator. 20 μL of compound solution from each well was added to the corresponding cell culture wells. The lowest pipetting speed was used and touching the bottom of the plate was avoided. The culture plate was gently shaked to mix the compound solution, then the plate was returned to the incubator for further culture for 72 hours.
The highest treatment concentration of the compound was 10 μM. After 72 hours of treatment, the Cell Titer-Glo (CTG) assay was performed. First, the cell culture plate was removed from the CO2 incubator and allowed to stand at room temperature for 30 minutes to ensure uniform temperature of the plate. The pre-prepared Cell Titer-Glo reagent (following the manufacturer's instructions) was taken and allowed to stand at room temperature to thaw. 60 μL of Cell Titer-Glo reagent was added to each well containing cells. The cells were incubated on a horizontal shaker in a dark place at 225 rpm for 1 hour at room temperature. Then, a Tecan Spark microplate reader was used to read the plate using chemiluminescence according to the manufacturer's instructions.

pIC50 | SMILES
> 7.00 | CC1Nc2ccc3ncc(n3n2)-c2cc(ccn2)OCc2ccc(F)cc21 (centres unmarked) [Example I-13, (E)-5^4-fluoro-6-methyl-3-oxa-7-aza-1(3,6)-imidazo[1,2-b]pyridazina-2(2,4)-pyridina-5(1,2)-benzenacycloheptaphane]
> 7.00 | C[C@@H]1Cc2ccnc(c2)-c2cnc3ccc(nn23)N[C@H](C)c2cc(F)ccc2O1 [Example I-34, (4R,7R,E)-5^5-fluoro-4,7-dimethyl-6-oxa-3-aza-2(3,6)-imidazo[1,2-b]pyridazina-1(2,4)-pyridina-5(1,2)-benzenacyclooctaphane]
> 7.00 | C[C@@H]1Cc2cc(ncn2)-c2cnc3ccc(nn23)N[C@H](C)c2cc(F)ccc2O1 [Example I-35, (4R,7R,E)-5^5-fluoro-4,7-dimethyl-6-oxa-3-aza-2(3,6)-imidazo[1,2-b]pyridazina-1(4,6)-pyrimidina-5(1,2)-benzenacyclooctaphane]
> 7.00 | C[C@@H]1Cc2ccnc(c2)-c2cnc3ccc(nn23)N[C@H](C)c2cc(F)cnc2O1 [Example I-36, (4R,7R,E)-5^5-fluoro-4,7-dimethyl-6-oxa-3-aza-2(3,6)-imidazo[1,2-b]pyridazina-1(2,4), 5(3,2)-dipyridinacyclooctaphane]
> 7.00 | C[C@@H]1Cc2ccnc(c2)-c2cnc3ccc(nn23)N2CCC[C@@H]2c2cc(F)ccc2O1 [Example I-37, (3^2R,6R,E)-4^5-fluoro-6-methyl-5-oxa-2(3,6)-imidazo[1,2-b]pyridazina-1(2,4)-pyridina-3(1,2)-pyrrolidina-4(1,2)-benzenacycloheptaphane]
> 7.00 | C[C@@H]1Cc2ccnc(c2)-c2cnc3ccc(nn23)N2CCC[C@@H]2c2cc(F)cnc2O1 [Example I-38, (3^2R,6R,E)-4^5-fluoro-6-methyl-5-oxa-2(3,6)-imidazo[1,2-b]pyridazina-1(2,4),4(3,2)-dipyridina-3(1,2)-pyrrolidinacycloheptaphane]
> 7.00 | C[C@H]1Nc2ccc3ncc(n3n2)-c2cc(ccn2)N2CC[C@H](C2)Oc2ccc(F)cc21 [Example I-41, (3^3R,6R,E)-5^4-fluoro-6-methyl-4-oxa-7-aza-1(3,6)-imidazo[1,2-b]pyridazina-2(2,4)-pyridina-3(1,3)-pyrrolidina-5(1,2)-benzenacycloheptaphane]
> 7.00 | C[C@H]1Nc2ccc3ncc(n3n2)-c2cc(ccn2)N2CC[C@@H](C2)Oc2ccc(F)cc21 [Example I-42, (3^3S,6R,E)-5^4-fluoro-6-methyl-4-oxa-7-aza-1(3,6)-imidazo[1,2-b]pyridazina-2(2,4)-pyridina-3(1,3)-pyrrolidina-5(1,2)-benzenacycloheptaphane]
> 7.00 | C[C@H]1Nc2ccc3ncc(n3n2)-c2cc(ccn2)N2CCC[C@H](C2)Oc2ccc(F)cc21 [Example I-43, (3^3R,6R,E)-5^4-fluoro-6-methyl-4-oxa-7-aza-1(3,6)-imidazo[1,2-b]pyridazina-2(2,4)-pyridina-3(1,3)-piperidina-5(1,2)-benzenacycloheptaphane]
> 7.00 | C[C@H]1Nc2ccc3ncc(n3n2)-c2cc(ccn2)N2CCC[C@@H](C2)Oc2ccc(F)cc21 [Example I-44, (3^3S,6R,E)-5^4-fluoro-6-methyl-4-oxa-7-aza-1(3,6)-imidazo[1,2-b]pyridazina-2(2,4)-pyridina-3(1,3)-piperidina-5(1,2)-benzenacycloheptaphane]
> 7.00 | Fc1ccc2c(c1)[C@H]1CCCN1c1ccc3ncc(n3n1)-c1cc(ccn1)[C@H]1CCC[C@H]1O2 [Example I-45, (8aR,11aR,16bR,E)-15-fluoro-8a,10,11,11a,16b,17,18,19-octahydro-9H-1,21-etheno-4,8-(metheno)benzo[b]cyclopenta[o]imidazo[1,5-h]pyrrolo[2,1-d][1]oxa[5,7,8,11]tetraazacyclohexadecine]
> 7.00 | Fc1ccc2c(c1)[C@H]1CCCN1c1ccc3ncc(n3n1)-c1cc(ccn1)[C@@H]1CCC[C@H]1O2 [Example I-46, (8aS,11aR,16bR,E)-15-fluoro-8a,10,11,11a,16b,17,18,19-octahydro-9H-1,21-etheno-4,8-(metheno)benzo[b]cyclopenta[o]imidazo[1,5-h]pyrrolo[2,1-d][1]oxa[5,7,8,11]tetraazacyclohexadecine]
> 7.00 | Fc1ccc2c(c1)C1(CC1)Nc1ccc3ncc(n3n1)-c1cc(ccn1)CO2 [Example I-47, (E)-4′-fluorospiro[cyclopropane-1,6′-4-oxa-7-aza-1(3,6)-imidazo[1,2-b]pyridazina-2(2,4)-pyridina-5(1,2)-benzenacycloheptaphane]]
> 7.00 | CC1(C)Nc2ccc3ncc(n3n2)-c2cc(ccn2)COc2ccc(F)cc21 [Example I-48, (E)-5^4-fluoro-6,6-dimethyl-4-oxa-7-aza-1(3,6)-imidazo[1,2-b]pyridazina-2(2,4)-pyridina-5(1,2)-benzenacycloheptaphane]
> 7.00 | Fc1cnc2c(c1)[C@H]1CCCN1c1ccc3ncc(n3n1)-c1cc(ccn1)CO2 [Example I-51, (14bR,E)-13-fluoro-14b,15,16,17-tetrahydro-9H-1,19-etheno-4,8-(metheno)imidazo[1,5-h]pyrido[2,3-b]pyrrolo[2,1-d][1]oxa[5,7,8,11]tetraazacyclopentadecine]
> 7.00 | Fc1ccc2c(c1)[C@H]1CCCN1c1ccc3ncc(n3n1)-c1cc(ccn1)CCO2 [Example I-53, (3^2R,E)-4^5-fluoro-5-oxa-2(3,6)-imidazo[1,2-b]pyridazina-1(2,4)-pyridina-3(1,2)-pyrrolidina-4(1,2)-benzenacycloheptaphane]
> 7.00 | Fc1cnc2c(c1)[C@H]1CCCN1c1ccc3ncc(n3n1)-c1cc(ccn1)CCO2 [Example I-55, (3^2R,E)-4^5-fluoro-5-oxa-2(3,6)-imidazo[1,2-b]pyridazina-1(2,4),4(3,2)-dipyridina-3(1,2)-pyrrolidinacycloheptaphane]
> 7.00 | Fc1ccc2c(c1)[C@H]1CCCN1c1ccc3ncc(n3n1)-c1cc(ncn1)CO2 [Example I-57, (14bR,E)-13-fluoro-14b,15,16,17-tetrahydro-9H-1,19-etheno-4,8-(metheno)benzo[n]imidazo[5,1-h]pyrrolo[1,2-l][1]oxa[4,6,9,10,12]pentaazacyclopentadecine]
> 7.00 | Fc1cnc2c(c1)[C@H]1CCCN1c1ccc3ncc(n3n1)-c1cc(ncn1)CO2 [Example I-59, (14bR,E)-13-fluoro-14b,15,16,17-tetrahydro-9H-1,19-etheno-4,8-(metheno)imidazo[5,1-h]pyrido[3,2-n]pyrrolo[1,2-l][1]oxa[4,6,9,10,12]pentaazacyclopentadecine]
> 7.00 | Fc1ccc2c(c1)[C@H]1CCCN1c1ccc3ncc(n3n1)-c1nccc(n1)CO2 [Example I-61, (14bR,E)-13-fluoro-14b,15,16,17-tetrahydro-9H-4,8-(azeno)-1,19-etheno benzo[b]imidazo[1,5-h]pyrrolo[2,1-d][1]oxa[5,7,8,11]tetraazacyclopentadecine]
> 7.00 | Fc1cnc2c(c1)[C@H]1CCCN1c1ccc3ncc(n3n1)-c1nccc(n1)CO2 [Example I-63, (14bR,E)-13-fluoro-14b,15,16,17-tetrahydro-9H-4,8-(azeno)-1,19-etheno imidazo[1,5-h]pyrido[2,3-b]pyrrolo[2,1-d][1]oxa[5,7,8,11]tetraazacyclopentadecine]
> 7.00 | Fc1ccc2c(c1)[C@H]1CCCN1c1ccc3ncc(n3n1)-c1cc(cnn1)CO2 [Example I-65, (14bR,E)-13-fluoro-14b,15,16,17-tetrahydro-9H-1,19-etheno-4,8-(metheno)benzo[n]imidazo[5,1-h]pyrrolo[1,2-l][1]oxa[5,6,9,10,12]pentaazacyclopentadecine]
> 7.00 | Fc1cnc2c(c1)[C@H]1CCCN1c1ccc3ncc(n3n1)-c1cc(cnn1)CO2 [Example I-67, (14bR,E)-13-fluoro-14b,15,16,17-tetrahydro-9H-1,19-etheno-4,8-(metheno)imidazo[5,1-h]pyrido[3,2-n]pyrrolo[1,2-l][1]oxa[5,6,9,10,12]pentaazacyclopentadecine]
> 7.00 | Fc1cnc2c(c1)[C@H]1CCCN1c1ccc3ncc(n3n1)-c1cc(ncn1)CCO2 [Example I-71, (3^2R,E)-4^5-fluoro-5-oxa-2(3,6)-imidazo[1,2-b]pyridazina-1(4,6)-pyrimidina-4(3,2)-pyridina-3(1,2)-pyrrolidinacycloheptaphane]
> 7.00 | C[C@H]1Nc2ccc3ncc(n3n2)-c2cc(ncn2)CCOc2ncc(F)cc21 [Example I-73, (4R,E)-5^5-fluoro-4-methyl-6-oxa-3-aza-2(3,6)-imidazo[1,2-b]pyridazina-1(4,6)-pyrimidina-5(3,2)-pyridinacyclooctaphane]
> 7.00 | C[C@H]1Nc2ccc3ncc(n3n2)-c2cc(ncn2)CCOc2ccc(F)cc21 [Example I-74, (4R,E)-5′-fluoro-4-methyl-6-oxa-3-aza-2(3,6)-imidazo[1,2-b]pyridazina-1(4,6)-pyrimidina-5(1,2)-benzenacyclooctaphane]
